Test results: patent US10844062B2, “Pyridine derivative inhibiting RAF kinase and vascular endothelial growth factor receptor, method for preparing same, pharmaceutical composition containing same, and use thereof” (SAMJIN PHARMACEUTICAL CO., LTD., priority 2016, dated 2020)

Test system: LS513 KRAS G12V (colon)
Assay: MTT assay
Assay type: cell-based
Conditions: Homo sapiens, LS-513, 72 h, Table 4; 3 days incubation; read-out: MTT assay IC50 KRAS mutant (Colon) LS513 KRAS G12V
Experimental: MTT assay is frequently used for the purpose of primary screening for the sensitivity of anticancer agents and to examine cytotoxicity. When cancer cells are treated with varying concentrations of any anticancer agent for a predetermined time to induce death of the cells and are then treated with MTT, and when the formation of formazan is measured, the concentration of the anticancer agent, at which about 50% of the cells survive, can be determined. This concentration value is called IC50. IC50 values differ between drugs, and thus can be characteristic of the drugs. Using this method, the effects of anticancer agents against cell proliferation can be quantitatively compared. Thus, in order to measure the cytotoxicity of samples, MTT assay was performed using CellTiter 96 Non-radioactive Cell Proliferation Assay Kit (Promega).
Cells in a cell suspension were counted with a hematocytometer, and then 200 μL of the cell suspension was added to each well of a 96 well plate at a desired concentration (cell amount determined depending on a cell line). After cell seeding, the cells were incubated in a CO2 incubator at 37° C. overnight. After one day of cell stabilization, the cells were treated with desired concentrations of the compounds. The cells were incubated in a CO2 incubator at 37° C. for 3 days, and then the sample was removed, and 200 μL of MTT solution was added to each well. After 2 hours of incubation, the MTT dilution was carefully shaken, and 200 μL of DMSO was added to each well, followed by shaking with a plate shaker for 60 minutes.

Structure (SMILES) | IC50 [nM]
O=C(Nc1c(F)ccc(Nc2ncccc2-c2ncnc3[nH]cnc23)c1F)c1cccc(C(F)(F)F)c1 [Example 72, N-2,6-Difluoro-3-[3-(9H-Purin-6-Yl)Pyridin-2-Ylamino)Phenyl-3-Trifluoromethylbenzamide] | 1270
O=C(Nc1cccc(C(F)(F)F)c1)c1cc(Nc2ncccc2-c2ncnc3[nH]cnc23)ccc1F [Example 73, 2-Fluoro-5-[3-(9H-Purin-6-Yl)Pyridin-2-Ylamino]-N-(3-Trifluoromethylphenyl)Benzamide] | 80
O=C(Nc1ccc(Cl)c(C(F)(F)F)c1)Nc1cc(Nc2ncccc2-c2ncnc3[nH]cnc23)ccc1F [Example 74, 1-(4-Chloro-3-Trifluoromethylphenyl)-3-2-Fluoro-5-[3-(9H-Purin-6-Yl)Pyridin-2-Ylamino]Phenylurea] | 68
O=C(Nc1cccc(C(F)(F)F)c1)Nc1ccc(Nc2ncccc2-c2ncnc3[nH]cnc23)c(F)c1 [Example 75, 1-3-Fluoro-4-[3-(9H-Purin-6-Yl)Pyridin-2-Ylamino]Phenyl-3-(3-Trifluoromethylphenyl)Urea] | > 10000
O=C(Cc1cccc(C(F)(F)F)c1)Nc1cc(Nc2ncccc2-c2ncnc3[nH]cnc23)ccc1F [Example 76, N-2-Fluoro-5-[3-(9H-Purin-6-Yl)Pyridin-2-Ylamino]Phenyl-2-(3-Trifluoromethylphenyl)Acetamide] | 426
N#CCc1cccc(NC(=O)c2ccc(F)c(Nc3ncccc3-c3ncnc4[nH]cnc34)c2)c1 [Example 77, N-(3-Cyanomethylphenyl)-4-Fluoro-3-[3-(9H-Purin-6-Yl)Pyridin-2-Ylamino]Benzamide] | 145000
N#CCc1ccc(C(=O)Nc2ccc(Nc3ncccc3-c3ncnc4[nH]cnc34)c(F)c2)cc1 [Example 78, N-4-[(3-(9H-Purin-6-Yl)Pyridin-2-Yl)Amino]-3-Fluorophenyl-4-(Cyanomethyl)Benzamide] | 137
O=C(Nc1ccc(Nc2ncccc2-c2ncnc3[nH]cnc23)cc1)c1cccc(C(F)(F)F)c1 [Example 79, N-4-[3-(9H-Purin-6-Yl)Pyridin-2-Ylamino]Phenyl-3-Trifluoromethylbenzamide] | > 10000
COc1cc(Nc2ncccc2-c2ncnc3[nH]cnc23)ccc1NC(=O)c1cccc(C(F)(F)F)c1 [Example 80, N-2-Methoxy-4-[3-(9H-Purin-6-Yl)Pyridin-2-Ylamino]Phenyl-3-Trifluoromethylbenzamide] | > 10000
O=C(Nc1ccc(F)c(Nc2ncccc2-c2ncnc3[nH]cnc23)c1F)N1CCN(c2ccc(F)cc2)C1=O [Example 81, N-(3-(3-(9H-purin-6-yl)pyridin-2-ylamino)-2,4-difluorophenyl)-3-(4-fluorophenyl)-2-oxoimidazolidine-1-carboxamide] | 388
CC(C)(C#N)c1cccc(C(=O)Nc2cc(Nc3ncccc3-c3ncnc4[nH]ccc34)c(F)cc2F)c1 [Example 84, N-(5-(3-(7H-Pyrrolo[2,3-d]Pyrimidin-4-Yl)Pyridin-2-Ylamino)-2,4-Diflurophenyl)-3-(2-Cyanopropan-2-Yl)Benzamide] | 118
CC(C)(C#N)c1cccc(C(=O)Nc2ccc(F)c(Nc3ncccc3-c3ncnc4[nH]ccc34)c2F)c1 [Example 85, N-(3-(3-(7H-Pyrrolo[2,3-d]Pyrimidin-4-Yl)Pyridin-2-Ylamino)-2,4-Difluorophenyl)-3-(2-Cyanopropan-2-Yl)Benzamide] | 676
CC(C)(C#N)c1cccc(C(=O)Nc2cccc(Nc3ncccc3-c3ncnc4[nH]ccc34)c2F)c1 [Example 86, N-(3-(3-(7H-Pyrrolo[2,3-d]Pyrimidin-4-Yl)Pyridin-2-Ylamino)-2-Fluorophenyl)-3-(2-Cyanopopan-2-Yl)Benzamide] | > 10000
O=C(Nc1cc(Nc2ncccc2-c2ncnc3[nH]ccc23)ccc1F)c1cccc(C(F)(F)F)c1 [Example 87, N-2-Fluoro-5-[3-(7H-Pyrrolo[2,3-d]Pyrimidin-4-Yl)Pyridin-2-Ylamino]Phenyl-3-Trifluoromethyl Benzamide] | 2180
